Source: article PMC9600172, “N-Succinyltransferase Encoded by a Cryptic Siderophore Biosynthesis Gene Cluster in Streptomyces Modifies Structurally Distinct Antibiotics” (mBio, 2022)
≈ marks a conversion by molar mass, not a printed value. Like-named read-outs stand apart in the source and are kept apart here.

Assays:
Design in all cases: Broth microdilution MIC following CLSI protocol, bacterial growth inhibition, at Medina Foundation
[1] = tested on: T1, Staphylococcus aureus MSSA MB2865; assay: microbe, parasite or virus in culture
T1 construct: MB2865 (MSSA)
Method: (§1) Testing of antimicrobial activities of desertomycin A and X was done by disk diffusion assay using Bacillus subtilis 164, Escherichia coli DH5a, and Saccharomyces cerevisiae BY4742 as test organisms. […] In vitro susceptibility for desertomycin A was determined at Medina Foundation (Granada, Spain) by the broth microdilution method following the Clinical and Laboratory Standards Institute protocol ([34]) using bacterial strains from the company’s strain collection (Table S4). […] In order to properly assess antibiotic activity of desertomycin A, it was tested, along with some clinically relevant antibiotics, on a panel of Gram-positive and Gram-negative bacteria using the broth microdilution method. […] This can be explained by different physiological conditions of bacterial cultures on the solid agar medium (initial disk assay) and in [compound left out] cultures (CLSI method).

[2] = tested on: T2, Staphylococcus aureus MRSA MB5393; assay: microbe, parasite or virus in culture
T2 construct: MB5393 (MRSA)
Method: as §1

E. faeciumVS [3] = tested on: T3, E. faeciumVS; assay: organism not typed
T3 construct: VS (vancomycin-susceptible)
Method: as §1

E. faeciumVR [4] = tested on: T4, E. faeciumVR; assay: organism not typed
T4 construct: VR (vancomycin-resistant)
Method: as §1

S. mutans ATCC25175 = tested on: T5, S. mutans ATCC25175; assay: microbe, parasite or virus in culture; details: Streptococcus mutans
T5 construct: ATCC 25175

E. faeciumVS [5] = tested on: T3, E. faeciumVS; assay: organism not typed; remark: listed apart in the source
Method: as §1, with “liquid” for “[compound left out]”

E. faeciumVR [6] = tested on: T4, E. faeciumVR; assay: organism not typed; remark: listed apart in the source
Method: as §1, with “liquid” for “[compound left out]”

[7] = tested on: T1, Staphylococcus aureus MSSA MB2865; assay: microbe, parasite or virus in culture; remark: listed apart in the source
Method: as §1, with “liquid” for “[compound left out]”

[8] = tested on: T2, Staphylococcus aureus MRSA MB5393; assay: microbe, parasite or virus in culture; remark: listed apart in the source
Method: as §1, with “liquid” for “[compound left out]”

Structure (SMILES)	MIC [1] [µg/mL]	MIC [2] [µg/mL]	MIC (E. faeciumVS [3]) [µg/mL]	MIC (E. faeciumVR [4]) [µg/mL]	MIC (S. mutans ATCC25175) [µg/mL]	MIC (E. faeciumVS [5]) [µg/mL]	MIC (E. faeciumVR [6]) [µg/mL]	MIC [7] [µg/mL]	MIC [8] [µg/mL]
C[C@H]1[C@H](NC(=O)/C(=N\OC(C)(C)C(=O)O)c2csc(N)n2)C(=O)N1S(=O)(=O)O [Aztreonam]	> 128	> 128	> 128	> 128	–	–	–	–	–
O=C(O)c1cn(C2CC2)c2cc(N3CCNCC3)c(F)cc2c1=O [Ciprofloxacin]	< 0.25	0.5 (≈ 1.51 µM)	> 128	16 (≈ 48.3 µM)	–	–	–	–	–
CC1=CCCC(C)C(O)C(C)C(O)CCC=CC(C)C(O)C=CC(C)C(O)C(C)=CC(O[C@H]2O[C@H](CO)[C@@H](O)[C@H](O)[C@@H]2O)C(O)CC(O)CC(O)CC(O)C(C)C(O)C(C)C(O)CC(O)CC(O)C=CCC(C(C)C(O)CCCN)OC1=O (stereo partly shown) [Desertomycin A]	32 (≈ 26.8 µM)	64 (≈ 53.7 µM)	64 (≈ 53.7 µM)	128 (≈ 107 µM)	32 (≈ 26.8 µM)	–	–	–	–
CNC(C)[C@@H]1CC[C@@H](N)[C@@H](O[C@H]2[C@H](O)[C@@H](O[C@H]3OC[C@](C)(O)[C@H](NC)[C@H]3O)[C@H](N)C[C@@H]2N)O1 (stereo partly shown) [Gentamicin]	–	–	–	–	–	> 128	32 (≈ 67 µM)	1 (≈ 2.09 µM)	< 0.25
C[C@@H](O)[C@H]1C(=O)N2C(C(=O)O)=C(SCCNC=N)C[C@H]12 [Imipenem]	< 0.25	8 (≈ 26.7 µM)	> 128	> 128	–	–	–	–	–
C[C@@H](O)[C@H]1C(=O)N2C(C(=O)O)=C(S[C@@H]3CN[C@H](C(=O)N(C)C)C3)[C@H](C)[C@H]12 [Meropenem]	< 0.25	8 (≈ 20.9 µM)	> 128	> 128	–	–	–	–	–
CC1(C)S[C@@H]2[C@H](NC(=O)Cc3ccccc3)C(=O)N2[C@H]1C(=O)O [Penicillin G]	16 (≈ 47.8 µM)	16 (≈ 47.8 µM)	> 128	> 128	–	–	–	–	–
CO[C@H]1/C=C/O[C@@]2(C)Oc3c(C)c(O)c4c(O)c(c(/C=N/N5CCN(C)CC5)c(O)c4c3C2=O)NC(=O)/C(C)=C\C=C\[C@H](C)[C@H](O)[C@@H](C)[C@@H](O)[C@@H](C)[C@H](OC(C)=O)[C@@H]1C [Rifampicin]	0.5 (≈ 0.608 µM)	0.5 (≈ 0.608 µM)	8 (≈ 9.72 µM)	16 (≈ 19.4 µM)	–	–	–	–	–
CN[C@H](CC(C)C)C(=O)N[C@H]1C(=O)N[C@@H](CC(N)=O)C(=O)N[C@H]2C(=O)N[C@H]3C(=O)N[C@H](C(=O)N[C@H](C(=O)O)c4cc(O)cc(O)c4-c4cc3ccc4O)[C@H](O)c3ccc(c(Cl)c3)Oc3cc2cc(c3O[C@@H]2O[C@H](CO)[C@@H](O)[C@H](O)[C@H]2O[C@H]2C[C@](C)(N)[C@H](O)[C@H](C)O2)Oc2ccc(cc2Cl)[C@H]1O [Vancomycin]	2 (≈ 1.38 µM)	8 (≈ 5.52 µM)	16 (≈ 11 µM)	> 128	–	–	–	–	–
